# Experimental data: patent US4018914A, “Parturition inducement” (Abbott Laboratories, priority 1975, dated 1977)
# Where two headings read alike, the source gives them in different places.
# Tested on: pregnant rats
# Assay type: in vivo, rat
# Details: for Mean Number of Pups / Day of Parturition: pregnant rats; for Day of Parturition: number of animals at day
# Experimental: The test animals received 20 μ in two equal portions, of L-pGlu-L-His-L-Trp-L-Ser-L-Tyr-D-Leu-L-Leu-L-Arg-L-Pro-NH-ethyl as a 0.04 g/l solution in 0.9% aqueous sodium chloride containing 0.1% bovine serum albumin. In all instances, the subcutaneous injections were given on day 18 of gestation.
# In a repetition of the procedure of Example 1, the same test was carried out except that the animals were injected on day 19 of gestation.
# [1] = same dose s.c. on day 19 of gestation
structure (smiles),measurement,setting,value
"CCNC(=O)[C@@H]1CCCN1C(=O)[C@H](CCCNC(=N)N)NC(=O)[C@H](CC(C)C)NC(=O)[C@@H](CC(C)C)NC(=O)[C@H](Cc1ccc(O)cc1)NC(=O)[C@H](CO)NC(=O)[C@H](Cc1c[nH]c2ccccc12)NC(=O)[C@H](Cc1c[nH]cn1)NC(=O)[C@@H]1CCC(=O)N1 [Test compound, L-pGlu-L-His-L-Trp-L-Ser-L-Tyr-D-Leu-L-Leu-L-Arg-L-Pro-NH-ethyl]",Mean Number of Pups,20 μ in two equal portions s.c. on day 18 of gestation,8.7
same,Day of Parturition,"20 μ in two equal portions s.c. on day 18 of gestation, normal pregnancy 21.5 days",1 at 21; 2 at 20
same,Mean Number of Pups,[1],9.3
same,Day of Parturition,[1],3 at 21
same,Condition of pups delivered,"rat, in vivo",healthy and indistinguishable from the control animals' pups
same,Parturition result at other dose levels,"rats, half and two times the dose level of example 1, compared with Table I",essentially the same result as shown in Table I
